Earlier results, collected in US20250114361A1, “PYRAZOLOPYRIMIDINE COMPOUND AND PHARMACEUTICAL USE THEREOF” (Japan Tobacco Inc., priority 2022, published 2025).

Experiments:
[1] = tested on: intracerebral bleeding model rats; settings: cited from earlier work
[2] = tested on: STZ-induced diabetic mice; settings: mouse, in vivo; cited from earlier work
[3] = tested on: intestinal perforation model; settings: in vivo; cited from earlier work
[4] = tested on: mice infected with SARS-CoV-2; settings: mouse, in vivo; cited from earlier work
[5] = tested on: pathological models of depressive illness; settings: in vivo; cited from earlier work
[6] = tested on: α-synuclein PFF injected mice; settings: mouse, in vivo; cited from earlier work
[7] = tested on: middle cerebral artery occlusion (MCAO) mice; settings: MCAO model; cited from earlier work
[8] = tested on: pilocarpine-induced epilepsy model mice; settings: mouse, in vivo; cited from earlier work
APP/PS1 mice = settings: mouse, in vivo; cited from earlier work
[9] = tested on: maternal immune activation (MIA) model; settings: administration to the mother; cited from earlier work
TBI model mice = settings: mouse, in vivo; cited from earlier work
[10] = tested on: mouse model of deoxycorticosterone acetate-salt; settings: in vivo; cited from earlier work
R6/2 mice = settings: mouse, in vivo; cited from earlier work
[11] = tested on: mice with spinal cord injury; settings: mouse, in vivo; cited from earlier work
microglia = settings: cited from earlier work
[12] = tested on: intra-articular urate-injected arthritis model; settings: in vivo; cited from earlier work
[13] = tested on: mouse strain expressing CAPS-related NLRP3 mutations; settings: in vivo; cited from earlier work
MOG35-55EAE model mice = settings: administration after the onset; cited from earlier work

Question: With CC(C)(O)c1coc(S(=O)(=O)NC(=O)Nc2c3c(cc4c2CCC4)CCC3)c1 [MCC950] as the molecule, how does the neuroprotective effects [1] read?
Answer: The neuroprotective effects was “showed neuroprotective effects”.

Question: What about the increased vascular permeability [2] of the same molecule?
Answer: Its increased vascular permeability is “alleviated increased vascular permeability”.

Question: And the “NLRP3 inflammasome activation and memory impairment” value [3]?
Answer: Its value is “NLRP3 inflammasome activation is suppressed and the memory impairment is improved”.

Question: And the “NLRP3 inflammasome activation in the lung and dysregulated immune response” value [4]?
Answer: The value was “inhibits NLRP3 inflammasome activation in the lung and suppresses the dysregulated immune response”.

Question: And the depressive symptoms [5]?
Answer: The depressive symptoms was “improves depressive symptoms”.

Question: And the “NLRP3 activation and neuronal death of dopamine neurons in the substantia nigra” value [6]?
Answer: Its value is “inhibits NLRP3 activation in the substantia nigra and suppresses neuronal death of dopamine neurons in the substantia nigra”.

Question: And the neuroprotective effects [7]?
Answer: Its neuroprotective effects is “showed neuroprotective effects”.

Question: What about the “apoptosis of hippocampal neurons” value [8] of the same molecule?
Answer: The value was “suppress apoptosis of hippocampal neurons”.

Question: What about the “NLRP3 activation in microglia and cognitive dysfunction” value (APP/PS1 mice) of the same molecule?
Answer: The value was “suppresses NLRP3 activation in microglia and improves cognitive dysfunction”.

Question: And the “ASD symptoms in offspring” value [9]?
Answer: Its value is “suppresses ASD symptoms in offspring”.

Question: And the “IL-1β production and neurological symptoms after brain injury” value (TBI model mice)?
Answer: The value was “inhibits IL-1β production in TBI model mice and suppresses the development of neurological symptoms after brain injury”.

Question: And the hypertension [10]?
Answer: The hypertension was “suppress hypertension”.

Question: What about the “NLRP3 inflammasome activation, neuronal death in the striatum, symptom progression” value (R6/2 mice) of the same molecule?
Answer: The value was “inhibits NLRP3 inflammasome activation in the striatum of R6/2 mice, suppresses neuronal death in the striatum, and suppresses symptom progression”.

Question: What about the “NLRP3 activation and IL-1β expression in the spinal cord, recovery of motor function” value [11] of the same molecule?
Answer: Its value is “NLRP3 activation and IL-1β expression in the spinal cord are suppressed, and the recovery of motor function is promoted”.

Question: What about the “NLRP3 activation in microglia and IL-1β production” value (microglia) of the same molecule?
Answer: The value was “inhibits SOD1G93A and TDP-43 protein-induced NLRP3 activation in microglia and decreases IL-1β production”.

Question: With CS(=O)(=O)CCC#N [OLT1177] as the molecule, how does the arthritis [12] read?
Answer: The arthritis was “suppressed arthritis”.

Question: With O=C(O)c1ccc(/C=C2/SC(=S)N(Cc3cccc(C(F)(F)F)c3)C2=O)cc1 [CY-09] as the molecule, how does the “systemic lethal inflammation and survival” value [13] read?
Answer: Its value is “suppressed systemic lethal inflammation and improved the survival”.

Question: With COc1ccc(Cl)cc1C(=O)NCCc1ccc(S(=O)(=O)NO)cc1 [JC-171] as the molecule, how does the “impairment of motor function” value (MOG35-55EAE model mice) read?
Answer: Its value is “inhibited the impairment of motor function”.
